Assay results taken from US5354747A, “2-, 3-, 4-, 5-, 6-, 7-, 8-, 9- and/or 10-substituted dibenzoxazepine and dibenzthiazepine compounds, pharmaceutical compositions and methods of use” (G. D. Searle & Co., priority 1993, dated 1994).
Counter-ions that a name gives are not always drawn.

Assays:
[1] = tested on: Charles River male albino mice; test: Writhing Assay (PBQ-induced writhing, analgesic activity); type: in vivo; details: Intragastric; for responders at 30 mg/kg / ED50: Mus musculus, po; for responders at 30 mg/kg: 25 min, read-out: number of mice out of nine or ten in which a test compound produced analgesia (converted); for ED50: PBQ writhing, mice, maximum likelihood function, read-out: calculated ED50 value (dose which produced analgesia in 50% of the mice)
Source text: The Writhing Assay is one of the most widely-used experimental procedures for measuring the analgesic activity of different narcotic and nonnarcotic analgesic agents, and involves the continuous, chemically-induced pain of visceral origin to an animal, such as a mouse or rat. [Gyires et al., Arch. int. Pharmacodyn, 267, 131-140 (1984); […] al., Fed. Proc., 15, 494 (1956); Koster et al., Fed. Proc., 18, 412 (1959); and Witken et al., J. Pharmacol. exp. Ther., 133, 400-408 (1961).] Chemicals which may be used to induce this pain include phenylbenzoquinone (PBQ) and acetic acid. As a result of the chemical irritation to the animal, a characteristic stretching and writhing of the animal (dorsiflexion of the animal's back, extension of its hindlimbs and the strong contraction of its abdominal musculature) will generally occur. […] Drugs which reduce the number of writhes of the animal appear to restore the normal nociceptive threshold of the animal. Charles River male albino mice, weighing 20 to 30 grams were used in this assay. Twenty-five minutes after intragastric administration to nine or ten mice of 30 mg per kilogram of body weight of a compound of the present invention ("test compound"), […] of body weight of a 0.025% w/v solution of PBQ was injected intraperitoneally into each mouse. Ten mice which were given saline in place of a test compound of the invention were used as a control group. Five minutes later, each mouse was individually placed into a glass beaker for observation, and the number of writhes occurring during the following ten-minute period was counted. A test compound was considered to have produced analgesia in a mouse if, in accordance with the conditions set forth above, and under the test criteria employed for this assay, after the administration of 30 mg per kilogram of body weight of a compound of the present invention to the mouse, the number of writhes elicited by a mouse injected with PBQ was equal to, or less than, one-half the median number of writhes recorded for the saline-treated control group of mice that day, as described by Taber in "Predictive Value of Analgesic Assays in Mice and Rats," Advances in Biochemical Psychopharmacology, 8, 191 (1974). […] If this initial screening dose of the test compound produced analgesia in seven of nine or ten mice, then the effect of additional doses of the test compound on the writhing response was evaluated, and then the ED50 value (that dose of a compound which produced analgesia in 50% of the mice to which the compound was administered) was generally calculated. A maximum likelihood function was used to determine the ED50 value. (The slopes of the dose-response curves for all test compounds analyzed were compared as described by Tallarida and Murray, Manual of Pharmacologic Calculations, Page 11 (Springer Verlag, New York, 1981)). The results for the particular compounds of the present invention analyzed in this assay, and discussed in the examples identified below which correspond thereto, are presented in Table 1 hereinbelow. The compounds of the present invention which were tested in this assay, and for which results are presented in Table 1, correspond to the particular examples specified in Table 1. The fractions indicate the number of mice out of nine or ten in which a test compound produced analgesia, and the whole numbers are the calculated ED50 values.

[2] = tested on: prostaglandin E2 -induced contractions of segments of guinea pig ileum; test: Prostaglandin (PGE) Antagonism Assay; type: cell-based; details: dose ratio of prostaglandin E2 EC50 doses with/without test compound, initial concentration 3 micromolar
Experimental: In order to determine the effectiveness of several of the compounds of the present invention ("test compounds") as prostaglandin E2 antagonists,a prostaglandin antagonism assay was conducted, as described below, to determine the ability of these compounds to inhibit prostaglandin E2 -induced contractions of segments of guinea pig ileum. […] Male albino guinea pigs weighing 200 to 500 grams were sacrificed by cervical dislocation. The ilea were then quickly removed from the guinea pigs and placed in a modified Tyrode solution, a solution which is known to those skilled in the art, containing one-half of the usual amount of magnesium ions. Segments of ileum about 2 cm long were then cut and mounted in a 10-mL tissue bath containing the modified Tyrode solution. The solution was maintained at 37° C. and aerated with a gaseous mixture of 95% oxygen and 5% carbon dioxide. Data for a control prostaglandin E2 dose response curve plotting concentration of prostaglandin E2 versus the intensity of contractions, detected isotonically, was then obtained by experimentally adjusting the dose of the prostaglandin E2 being injected into the tissue bath, in a manner known by those of skill in the art. Solutions or suspensions containing an initial concentration (3 micromolar) of a test compound in modified Tyrode solution ("test solutions/suspensions") were then separately substituted for the control bath solution. Each test solution/suspension was then kept in constant contact with the ileum tissue, except for brief periods to drain the bath in preparation for rinsing with fresh test solution/suspension. A second prostaglandin E2 dose response curve was then generated for prostaglandin E2 in the presence of a test compound. A dose ratio (DR) of EC50 doses was then calculated from the results of each test in a manner known by those of skill in the art. A control dose response curve (DRC) is produced in isolated segments of guinea pig ileum mounted in an automated apparatus with six concentrations of prostaglandin E2. A solution or suspension of test compound is substituted for the control bathing solution and is incubated for thirty minutes. An additional prostaglandin E2 dose response curve is produced in the presence of the test compound. A dose ratio is calculated from the EC50 values obtained from duplicate replications on each concentration of the test compound. […] The results of this prostaglandin antagonism assay are presented in Table 2 below in terms of their dose ratio. The compounds of the present invention which were tested in this assay, and for which results are presented in Table 2, correspond to the particular examples specified in Table 2.

[3] = 30 mg per kilogram of body weight 25 min before PBQ i.p., writhes equal to or less than one-half the control median

SMILES | responders at 30 mg/kg [1, 3] | Dose Ratio [2] | ED50 [1] | number of mice out of nine or ten in which a test compound produced analgesia [1, 3]
O=C(CCc1cccnc1)N1CCN(C(=O)N2Cc3ccccc3Oc3ccc(Cl)cc32)CC1 [Example 33, 1-[(8-chlorodibenz[b,f][1,4]oxazepin-10(11H)-yl)carbonyl]-4-[(1-oxo-3-(3-pyridinyl)propyl]piperazine, monohydrochloride] | 80% | 6.7 |  | 
Cl.O=C(N1CCN(Cc2cccs2)CC1)N1Cc2ccccc2Oc2ccc(Cl)cc21 [Example 54, 8-chloro-10,11-dihydro-10-[[4-(2-thienylmethyl)-1-piperazinyl]carbonyl]dibenz[b,f][1,4]oxazepine, monohydrochloride] | 60% | 2.4 |  | 
CCCCN1CCN(C(=O)N2Cc3ccccc3Oc3ccc(Cl)cc32)CC1.Cl [Example 9, 10-[(4-butyl-1-piperazinyl)carbonyl]-8-chloro-10,11-dihydrodibenz[b,f][1,4]oxazepine, monohydrochloride] |  | 1.4 | 9.7 mg/kg | 
CC(C)(C)OC(=O)N1CCN(C(=O)N2Cc3ccccc3Oc3ccc(Cl)cc32)CC1 [Example 20, 1,1-dimethylethyl 4-[(8-chlorodibenz[b,f][1,4]oxazepin-10(11H)-yl)carbonyl]-1-piperazinecarboxylate] | 40% | 8.0 |  | 
CCN(CC)CCC1=CCN(C(=O)N2Cc3ccccc3Oc3ccc(Cl)cc32)CC1.Cl [Example 67, 8-chloro-10-[[4-[2-(diethylamino)ethyl]-3,6-dihydro-1(2H)-pyridinyl]carbonyl]-10,11-dihydrobenz[b,f][1,4]oxazepine, hydrochloride] |  | 10.2 |  | 6/10
Cl.O=C(N1CCN(Cc2ccccc2)CC1)N1Cc2ccccc2Oc2ccc(Cl)cc21 [Example 7, 8-chloro-10,11-dihydro-10-[[4-(phenylmethyl)-1-piperazinyl]carbonyl]dibenz[b,f][1,4]oxazepine, monohydrochloride] |  | 5.1 | 6.8 mg/kg | 
CCCN1CCN(C(=O)N2Cc3ccccc3Oc3ccc(Cl)cc32)CC1.Cl [Example 17, 8-chloro-10,11-dihydro-10-[(4-propyl-1-piperazinyl)carbonyl]dibenz[b,f][1,4]oxazepine, hydrochloride] |  | 3.1 | 5.1 mg/kg | 
O=C(N1CCNCC1)N1Cc2ccccc2Oc2ccc(Cl)cc21 [Example 25, 8-chloro-10,11-dihydro-10-(1-piperazinylcarbonyl)dibenz[b,f][1,4]oxazepine, monohydrochloride] | 50% | 1.6 |  | 
Cl.O=C(Cc1cccnc1)N1CCN(C(=O)N2Cc3ccccc3Oc3ccc(Cl)cc32)CC1 [Example 56, 1-[(8-chlorodibenz[b,f][1,4]oxazepin-10(11H)-yl)carbonyl]-4-(3-pyridinylacetyl)piperazine, monohydrochloride] | 50% | 3.3 |  | 
Cl.O=C(c1cccnc1)N1CCN(C(=O)N2Cc3ccccc3Oc3ccc(Cl)cc32)CC1 [Example 58, 1-[(8-chlorodibenz[b,f][1,4]oxazepin-10(11H)-yl)carbonyl]-4-(3-pyridinylcarbonyl)piperazine, hydrochloride] | 70% | 6.6 |  | 
Cl.O=C(N1CCN(c2ccccc2)CC1)N1Cc2ccccc2Oc2ccc(Cl)cc21 [Example 43, 8-chloro-10,11-dihydro-10-[(4-phenyl-1-piperazinyl)carbonyl]dibenz[b,f][1,4]oxazepine, hydrochloride] | 10% | 0.8 |  | 
